We go through 10 compounds from patent publication EP4818175A1, “NOVEL ANTIVIRAL COMPOUNDS” (Consejo Superior de Investigaciones Científicas (CSIC), priority 2025, dated 2026).

Broadly, the EC50 is the concentration at which the effect is half-maximal. High values mean a less potent agent, low ones a more potent agent.

Some results are limits rather than exact numbers.

In the assay the test system is HSV-1 K26-GFP. Put plainly: microbe, parasite or virus in culture. The format is cell-based, HSV-1 (F strain). The note with it: Human alphaherpesvirus 1, Vero, 24 h; for inhibition at 20 µM: read-out: percentage inhibition at the highest concentration tested (20 µM).

In the case of `Nc1nc2c(ncn2COCCO)c(=O)[nH]1` [Acyclovir (ACV), Acyclovir, reference compound], the EC50 was 0.68 ± 0.11 µM.

On to `O=C1c2c(O)c(=O)ccn2N([C@@H]2c3ccccc3SCc3c2ccc(F)c3F)[C@@H]2COCCN12` [Baloxavir acid, reference compound], for which the 50% effective concentration (EC50) is above 20 µM and the inhibition at 20 µM amounted to 40.7%.

On to `COC(=O)OCOc1c2n(ccc1=O)N([C@@H]1c3ccccc3SCc3c1ccc(F)c3F)[C@@H]1COCCN1C2=O` [Baloxavir marboxil, reference compound], for which the EC50 is above 20 µM and the inhibition at 20 µM was 13.7%.

On to `O=C1c2c(O)c(=O)ccn2N(Cc2ccc(C(F)(F)F)cc2)[C@@H]2COCCN12` [Compound 7, (R)-7-hydroxy-12-(4-(trifluoromethyl)benzyl)-3,4,12,12a-tetrahydro-1H-[1,4]oxazino[3,4-c]pyrido[2,1-f][1,2,4]triazine-6,8-dione], for which the EC50 came to 3.4 ± 2.7 µM.

`O=C1c2c(O)c(=O)ccn2N(Cc2ccc(Cl)c(F)c2)[C@@H]2COCCN12` [Compound 10, (R)-12-(4-chloro-3-fluorobenzyl)-7-hydroxy-3,4,12,12a-tetrahydro-1H-[1,4]oxazino[3,4-c]pyrido[2,1-f][1,2,4]triazine-6,8-dione] had an EC50 of 10.3 ± 0.9 µM. Compared with the last compound, the EC50 is about 3-fold higher.

On to `O=C1c2c(O)c(=O)ccn2N(Cc2ccc(-c3ccco3)cc2)[C@@H]2COCCN12` [Compound 18, (R)-12-(4-(furan-2-yl)benzyl)-7-hydroxy-3,4,12,12a-tetrahydro-1H-[1,4]oxazino[3,4-c]pyrido[2,1-f][1,2,4]triazine-6,8-dione], for which the EC50 is above 20 µM and the inhibition at 20 µM stood at 48.5%.

Compound `O=C1c2c(O)c(=O)ccn2N(Cc2ccc(-c3ccccc3)cc2)[C@@H]2COCCN12` [Compound 19, (R)-12-([1,1'-biphenyl]-4-yimethyl)-7-hydroxy-3,4,12,12a-tetrahydro-1H-[1,4]oxazino[3,4-c]pyrido[2,1-f][1,2,4]triazine-6,8-dione] had an EC50 of 2.8 ± 1.1 µM.

The compound `O=C1c2c(O)c(=O)ccn2N(Cc2ccc(-c3ccc(F)cc3)cc2)[C@@H]2COCCN12` [Compound 29, (R)-12-((4'-fluoro-[1,1'-biphenyl]-4-yl)methyl)-7-hydroxy-3,4,12,12a-tefrahydro-1H-[1,4]oxazino[3,4-c]pyrido[2,1-f][1,2,4]triazine-6,8-dione] yielded an EC50 of 4 ± 1.3 µM.

As for `O=C1c2c(O)c(=O)ccn2N(Cc2ccc(-c3ccc(OC(F)(F)F)cc3)cc2)[C@@H]2COCCN12` [Compound 32, (R)-7-hydroxy-12-((4'-(trifluoromethoxy)-[1,1'-biphenyl]-4-yl)methyl)-3,4,12,12a-tetrahydro-1H-[1,4]oxazino[3,4-c]pyrido[2,1-f][1,2,4]triazine-6,8-dione], a half-maximal response (EC50) required 8.9 ± 1 µM.

For `CC(C)c1ccc(O)c(O)c(=O)c1` [β-thujaplicinol, reference compound], it took 3.9 ± 0.9 µM to reach a half-maximal effect (EC50).
